According to PMC9942197, “Mechanistic Insights into the Ene-Reductase-Catalyzed Promiscuous Reduction of Oximes to Amines” (ACS Catalysis, 2023):

Experiments:
[1] = molecular target: T1, OPR3 (Solanum lycopersicum, UniProt Q9FEW9); assay: stopped-flow pre-steady-state kinetics, oxidative half-reaction; type: biochemical; settings: oxidative half-reaction of reduced enzyme; read-out: Kd oxime
T1 construct: recombinant purified FMN ene-reductase; construct details in supplement
Description: (§1) stopped-flow pre-steady-state kinetics, oxidative half-reaction on OPR3

[2] = molecular target: T2, OPR3 (Solanum lycopersicum, UniProt Q9FEW9, Y190F); assay: as above; type: biochemical; settings: oxidative half-reaction of reduced enzyme; read-out: Kd oxime
T2 construct: recombinant purified FMN ene-reductase; construct details in supplement
Description: as §1

[3] = molecular target: T3, OPR3 (Solanum lycopersicum, UniProt Q9FEW9, Y370F); assay: as above; type: biochemical; settings: oxidative half-reaction of reduced enzyme; read-out: Kd oxime
T3 construct: recombinant purified FMN ene-reductase; construct details in supplement
Description: as §1

[4] = molecular target: T4, XenA (Pseudomonas putida, UniProt Q9R9V9); assay: X-ray crystal structure; type: binding; settings: active site, oxidized flavin
T4 construct: recombinant purified FMN ene-reductase, His-tagged (position differs from earlier reports)

[5] = molecular target: T4, XenA; assay: stopped-flow pre-steady-state kinetics, oxidative half-reaction; type: biochemical; settings: oxidative half-reaction of reduced enzyme; read-out: Kd oxime
Description: stopped-flow pre-steady-state kinetics, oxidative half-reaction on XenA

[6] = molecular target: T1, OPR3; assay: X-ray crystal structure; type: binding; settings: active site, oxidized flavin
[7] = molecular target: T4, XenA; assay: stopped-flow pre-steady-state kinetics, reductive half-reaction; type: biochemical; settings: read-out: Kd NADPH; reductive half-reaction of oxidized enzyme
Description: stopped-flow pre-steady-state kinetics, reductive half-reaction on XenA

T4 sequence (Q9R9V9 entry or part of it): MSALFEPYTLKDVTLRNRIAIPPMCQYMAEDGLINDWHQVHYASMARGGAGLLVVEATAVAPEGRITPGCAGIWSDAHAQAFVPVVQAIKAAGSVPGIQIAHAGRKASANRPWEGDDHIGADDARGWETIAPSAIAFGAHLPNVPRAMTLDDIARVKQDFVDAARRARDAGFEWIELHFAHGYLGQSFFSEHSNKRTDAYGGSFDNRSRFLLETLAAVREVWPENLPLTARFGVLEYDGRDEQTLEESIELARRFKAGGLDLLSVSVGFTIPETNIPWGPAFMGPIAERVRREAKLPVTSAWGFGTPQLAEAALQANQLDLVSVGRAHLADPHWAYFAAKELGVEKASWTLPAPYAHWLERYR
T1 sequence (Q9FEW9 whole entry): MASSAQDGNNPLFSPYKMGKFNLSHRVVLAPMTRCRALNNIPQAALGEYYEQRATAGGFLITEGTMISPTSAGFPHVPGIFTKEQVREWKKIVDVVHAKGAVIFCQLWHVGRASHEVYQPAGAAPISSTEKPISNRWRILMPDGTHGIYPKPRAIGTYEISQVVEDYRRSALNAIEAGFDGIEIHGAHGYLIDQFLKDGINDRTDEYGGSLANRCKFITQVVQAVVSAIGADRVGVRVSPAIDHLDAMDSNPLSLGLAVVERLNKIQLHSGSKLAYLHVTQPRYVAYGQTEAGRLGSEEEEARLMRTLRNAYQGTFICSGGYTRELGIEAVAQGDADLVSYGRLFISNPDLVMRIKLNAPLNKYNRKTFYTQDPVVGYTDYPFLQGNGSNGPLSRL
T3 sequence (Q9FEW9 whole entry Y370F): as the sequence (Q9FEW9 whole entry) above, with Y370F counted along it
T2 sequence (Q9FEW9 whole entry Y190F): as the sequence (Q9FEW9 whole entry) above, with Y190F counted along it

Work on `CCOC(=O)C(=NO)C(C)=O` [1a, oxime 1a] yielded a Kd [1] of 79 ± 4 µM, a Kd [2] of 69 ± 4 µM and a Kd [3] of 37.4 ± 4.4 µM. For the same compound, the X-ray crystal structure [4] was “(b) XenA/1a”.
With `CCOC(=O)C(=NO)C(=O)CC` [1b, oxime 1b] the Kd [5] was 6430 ± 1570 µM and the X-ray crystal structure [6] was “(c) OPR3/1b”.
In the case of `NC(=O)C1=CN([C@@H]2O[C@H](COP(=O)(O)OP(=O)(O)OC[C@H]3O[C@@H](n4cnc5c(N)ncnc54)[C@H](OP(=O)(O)O)[C@@H]3O)[C@@H](O)[C@H]2O)C=CC1` [NADPH], the Kd [7] is reported as 109 ± 5.1 µM.
